Source: the supplement of paper PMC11208160

Experiment: recombinant UMI read abundance after kanamycin selection (control-corrected) (log10(CPM+1)); higher = more efficient recombination; extreme values may be limits of the assay; sequences stand for … in AGTGCAGAGAAAATCGGCCAGTTTTCTCTGCCTGCAGTCCGCATGCCGTGGGACCCCTTGGGTTCTAACCTGTTGCCTAGATTTATGCAGCGGACTGCCTTTCTCCCAAAGTGATAAACCGG…AGGTTGGTTTCACT; site = the 11-nt donor
Method in brief: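 The measure is log10(CPM+1) for recombinant UMIs. These were PCR-amplified across the donor–target junction and sequenced after Escherichia coli carrying a donor and donor-binding-loop pair library and a target plasmid with T7-inducible IS621 bridge recombinase was plated on IPTG (0.07 mM) plus kanamycin or unselected. CPM were averaged over two replicates and scaled by control-derived factors.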
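Note: IS621 bridge recombinase in Escherichia coli cells against a fixed T5 target plasmid.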

Point of comparison: “CGATCGACATGGACCGGTTTTCCCGGTAATCCGTATTTGTT (site CGATGGACTAA)”, “recombinant UMI read abundance (log10)” value 0.0255. Against it:
- CGAGGTGCATGGACCGGTTTTCCCGGTAATCCGTATTTGAT (site CTAGGTGCTAT) — higher, 1.6
- CGAGTAGCATGGACCGGTTTTCCCGGTAATCCGTATTTGCC (site CGAGTAGCTGG) — higher, 1.66
- CGAGTATCATGGACCGGTTTTCCCGGTAATCCGTATTTGGC (site CGAGTATCTGC) — higher, 3.08
- CGAGTATCATGGACCGGTTTTCCCGGTAATCCGTATTTGGC (site CTAGTATCTGT) — higher, 2.29
- CGAGTCACATGGACCGGTTTTCCCGGTAATCCGTATTTGGG (site CAAGTCACTCC) — within 0.2 log units, 0.0136
- CGAGTCACATGGACCGGTTTTCCCGGTAATCCGTATTTGGG (site CCAGTCACTCC) — within 0.2 log units, 0.0249
- CGAGTCACATGGACCGGTTTTCCCGGTAATCCGTATTTGGG (site CGAGTCACTCC) — within 0.2 log units, 0.184
- CGAGTCACATGGACCGGTTTTCCCGGTAATCCGTATTTGGG (site CTAGTCACTCC) — within 0.2 log units, 0.00855
- CGAGTGGCATGGACCGGTTTTCCCGGTAATCCGTATTTGAG (site CGAGTGGCTCT) — higher, 1.85
- CGATAATCATGGACCGGTTTTCCCGGTAATCCGTATTTGGT (site CGATAATCTAC) — higher, 2.74
- CGATAATCATGGACCGGTTTTCCCGGTAATCCGTATTTGGT (site CGATCATCTAG) — within 0.2 log units, 0
- CGATCATCATGGACCGGTTTTCCCGGTAATCCGTATTTGAC (site CGATCATCTAG) — within 0.2 log units, 0
- CGATCATCATGGACCGGTTTTCCCGGTAATCCGTATTTGAC (site CGATCATCTGT) — higher, 1.49
- CGATCATCATGGACCGGTTTTCCCGGTAATCCGTATTTGCA (site CGATCATCTAG) — within 0.2 log units, 0
- CGATCATCATGGACCGGTTTTCCCGGTAATCCGTATTTGCA (site CGATCATCTCG) — within 0.2 log units, 0
- CGATCATCATGGACCGGTTTTCCCGGTAATCCGTATTTGCA (site CGATCATCTGG) — within 0.2 log units, 0
- CGATCATCATGGACCGGTTTTCCCGGTAATCCGTATTTGCA (site CGATCATCTTG) — higher, 2.31
- CGATCATCATGGACCGGTTTTCCCGGTAATCCGTATTTGGG (site CGATCATCTAG) — within 0.2 log units, 0
- CGATCATCATGGACCGGTTTTCCCGGTAATCCGTATTTGGG (site CGATCATCTCC) — within 0.2 log units, 0.00655
- CGATCCCCATGGACCGGTTTTCCCGGTAATCCGTATTTGAA (site CGATCCCCTTT) — higher, 0.71
- CGATCGACATGGACCGGTTTTCCCGGTAATCCGTATTTGTG (site CGATCGACTAA) — higher, 0.242
- CGATCGACATGGACCGGTTTTCCCGGTAATCCGTATTTGTG (site CGATCGACTCA) — within 0.2 log units, 0.139
- CGATCGACATGGACCGGTTTTCCCGGTAATCCGTATTTGTG (site CGATCGACTGA) — within 0.2 log units, 0
- CGATCGACATGGACCGGTTTTCCCGGTAATCCGTATTTGTG (site CGATCGACTTA) — higher, 0.319
- CGATCGACATGGACCGGTTTTCCCGGTAATCCGTATTTGTT (site AGATCGACTAA) — within 0.2 log units, 0.0131
- CGATCGACATGGACCGGTTTTCCCGGTAATCCGTATTTGTT (site CAATCGACTAA) — within 0.2 log units, 0.0144
- CGATCGACATGGACCGGTTTTCCCGGTAATCCGTATTTGTT (site CCATCGACTAA) — within 0.2 log units, 0.0246
- CGATCGACATGGACCGGTTTTCCCGGTAATCCGTATTTGTT (site CGAACGACTAA) — within 0.2 log units, 0.0148
- CGATCGACATGGACCGGTTTTCCCGGTAATCCGTATTTGTT (site CGACCGACTAA) — higher, 0.509
- CGATCGACATGGACCGGTTTTCCCGGTAATCCGTATTTGTT (site CGAGCGACTAA) — within 0.2 log units, 0.0076
- CGATCGACATGGACCGGTTTTCCCGGTAATCCGTATTTGTT (site CGATAGACTAA) — within 0.2 log units, 0.00765
- CGATCGACATGGACCGGTTTTCCCGGTAATCCGTATTTGTT (site CGATCAACTAA) — within 0.2 log units, 0.0776
- CGATCGACATGGACCGGTTTTCCCGGTAATCCGTATTTGTT (site CGATCCACTAA) — within 0.2 log units, 0.0134
- CGATCGACATGGACCGGTTTTCCCGGTAATCCGTATTTGTT (site CGATCGACTAA) — higher, 0.6
- CGATCGACATGGACCGGTTTTCCCGGTAATCCGTATTTGTT (site CGATCGACTAC) — within 0.2 log units, 0.0194
- CGATCGACATGGACCGGTTTTCCCGGTAATCCGTATTTGTT (site CGATCGACTAG) — higher, 1.09
- CGATCGACATGGACCGGTTTTCCCGGTAATCCGTATTTGTT (site CGATCGACTAT) — within 0.2 log units, 0.188
- CGATCGACATGGACCGGTTTTCCCGGTAATCCGTATTTGTT (site CGATCGACTCA) — within 0.2 log units, 0.0164
- CGATCGACATGGACCGGTTTTCCCGGTAATCCGTATTTGTT (site CGATCGACTGA) — higher, 0.668
- CGATCGACATGGACCGGTTTTCCCGGTAATCCGTATTTGTT (site CGATCGACTTA) — higher, 0.271
- CGATCGACATGGACCGGTTTTCCCGGTAATCCGTATTTGTT (site CGATCGCCTAA) — within 0.2 log units, 0.00955
- CGATCGACATGGACCGGTTTTCCCGGTAATCCGTATTTGTT (site CGATCGGCTAA) — within 0.2 log units, 0.00691
- CGATCGACATGGACCGGTTTTCCCGGTAATCCGTATTTGTT (site CGATCGTCTAA) — within 0.2 log units, 0.00706
- CGATCGACATGGACCGGTTTTCCCGGTAATCCGTATTTGTT (site CGATCTACTAA) — within 0.2 log units, 0.00746
- CGATCGACATGGACCGGTTTTCCCGGTAATCCGTATTTGTT (site CGATTGACTAA) — within 0.2 log units, 0.0149
- CGATCGACATGGACCGGTTTTCCCGGTAATCCGTATTTGTT (site CGCTCGACTAA) — within 0.2 log units, 0.0137
- CGATCGACATGGACCGGTTTTCCCGGTAATCCGTATTTGTT (site CGGTCGACTAA) — within 0.2 log units, 0.012
- CGATCGACATGGACCGGTTTTCCCGGTAATCCGTATTTGTT (site CGTTCGACTAA) — within 0.2 log units, 0.0124
- CGATCGACATGGACCGGTTTTCCCGGTAATCCGTATTTGTT (site CTATCGACTAA) — within 0.2 log units, 0.0176
- CGATCGACATGGACCGGTTTTCCCGGTAATCCGTATTTGTT (site GGATCGACTAA) — within 0.2 log units, 0.0103
- CGATCGACATGGACCGGTTTTCCCGGTAATCCGTATTTGTT (site TGATCGACTAA) — within 0.2 log units, 0.00749
- CGATCGCCATGGACCGGTTTTCCCGGTAATCCGTATTTGCT (site CGATCATCTAG) — within 0.2 log units, 0
- CGATCGCCATGGACCGGTTTTCCCGGTAATCCGTATTTGCT (site CGATCGCCTAG) — higher, 0.27
- CGATCGGCATGGACCGGTTTTCCCGGTAATCCGTATTTGTT (site CGATCGACTAA) — within 0.2 log units, 0.00492
- CGATCGGCATGGACCGGTTTTCCCGGTAATCCGTATTTGTT (site CGATCGCCTAA) — within 0.2 log units, 0.0111
- CGATCGGCATGGACCGGTTTTCCCGGTAATCCGTATTTGTT (site CGATCGGCTAA) — higher, 0.642
- CGATCGGCATGGACCGGTTTTCCCGGTAATCCGTATTTGTT (site CGATCGTCTAA) — higher, 0.324
- CGATCTTCATGGACCGGTTTTCCCGGTAATCCGTATTTGCA (site CGATCATCTAG) — within 0.2 log units, 0
- CGATCTTCATGGACCGGTTTTCCCGGTAATCCGTATTTGCA (site CGATCTTCTTG) — higher, 0.912
- CGATGACCATGGACCGGTTTTCCCGGTAATCCGTATTTGGG (site CGAAGACCTCC) — within 0.2 log units, 0.00605
- CGATGACCATGGACCGGTTTTCCCGGTAATCCGTATTTGGG (site CGACGACCTCC) — within 0.2 log units, 0.00326
- CGATGACCATGGACCGGTTTTCCCGGTAATCCGTATTTGGG (site CGAGGACCTCC) — within 0.2 log units, 0.0601
- CGATGACCATGGACCGGTTTTCCCGGTAATCCGTATTTGGG (site CGATGACCTCC) — within 0.2 log units, 0.0111
- CGATGATCATGGACCGGTTTTCCCGGTAATCCGTATTTGAT (site CGATCATCTAG) — within 0.2 log units, 0
- CGATGATCATGGACCGGTTTTCCCGGTAATCCGTATTTGAT (site CGATGATCTAT) — higher, 2.44
- CGATGCACATGGACCGGTTTTCCCGGTAATCCGTATTTGAT (site CGATGCACTAT) — higher, 2.34
- CGATTACCATGGACCGGTTTTCCCGGTAATCCGTATTTGAT (site CGATTACCTAT) — within 0.2 log units, 0
- CGATTGGCATGGACCGGTTTTCCCGGTAATCCGTATTTGCT (site CGATTGGCTAG) — higher, 0.768
- CGATTGGCATGGACCGGTTTTCCCGGTAATCCGTATTTGCT (site CGCTTGGCTAG) — within 0.2 log units, 0
- CGATTGGCATGGACCGGTTTTCCCGGTAATCCGTATTTGCT (site CGGTTGGCTAG) — within 0.2 log units, 0
- CGATTGGCATGGACCGGTTTTCCCGGTAATCCGTATTTGCT (site CGTTTGGCTAG) — within 0.2 log units, 0
- CGATTTACATGGACCGGTTTTCCCGGTAATCCGTATTTGGC (site CGATTTACTGC) — within 0.2 log units, 0
- CGATTTCCATGGACCGGTTTTCCCGGTAATCCGTATTTGTT (site CGATTTCCTAA) — higher, 0.757
- CGCAACTCATGGACCGGTTTTCCCGGTAATCCGTATTTGAC (site CGCAACTCTGT) — higher, 2.04
